Measured values published in PubChem BioAssay (NCI).
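How tested: cells in 96-well plates exposed to compound for 48 hours at five concentrations. GI50 = concentration required for 50% inhibition of growth. At the TGI there is no net growth.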

What was measured:
Experiment in all cases: NCI tumour cell line growth inhibition, 48 h
[1] = system: IGROV1 ovarian
[2] = system: SN12C renal
[3] = system: SNB-75 CNS
[4] = system: OVCAR-8 ovarian
[5] = system: A498 renal
[6] = system: 786-0 renal
[7] = system: HS 578T breast
[8] = system: COLO 205 colon
[9] = system: HT29 colon
[10] = system: OVCAR-3 ovarian
[11] = system: SK-MEL-28 melanoma
[12] = system: SR leukemia
[13] = system: NCI-H226 lung
[14] = system: NCI/ADR-RES ovarian
[15] = system: SNB-19 CNS
[16] = system: NCI-H460 lung
[17] = system: SF-539 CNS
[18] = system: T-47D breast
[19] = system: LOX IMVI melanoma
[20] = system: SK-OV-3 ovarian
[21] = system: RPMI-8226 leukemia
[22] = system: MCF7 breast
[23] = system: K-562 leukemia
[24] = system: SF-295 CNS
[25] = system: CCRF-CEM leukemia
[26] = system: UACC-257 melanoma
[27] = system: M14 melanoma
[28] = system: MOLT-4 leukemia
[29] = system: ACHN renal
[30] = system: TK-10 renal
[31] = system: HOP-62 NSCLC
[32] = system: MDA-MB-435
[33] = system: UACC-62 melanoma
[34] = system: NCI-H23 lung
[35] = system: BT-549 breast
[36] = system: DU-145 prostate
[37] = system: HCT-116 colon
[38] = system: CAKI-1 renal
[39] = system: NCI-H522 lung
[40] = system: A549 NSCLC
[41] = system: HCT-15 colon
[42] = system: MALME-3M melanoma
[43] = system: SK-MEL-2 melanoma
[44] = system: OVCAR-4 ovarian
[45] = system: UO-31 renal
[46] = system: HL-60(TB) leukemia
[47] = system: KM12 colon
[48] = system: PC-3 prostate
[49] = system: SW-620 colon
[50] = system: HOP-92 NSCLC
[51] = system: SF-268 CNS
[52] = system: SK-MEL-5 melanoma
[53] = system: HCC-2998 colon
[54] = system: OVCAR-5 ovarian
[55] = system: MDA-MB-231 breast

Question: Which results are given for `N=C(N=C(N)N)N1CCN(c2ccncc2)CC1`?
Answer: GI50 [1]: > 1000 µM; TGI [1]: > 1000 µM; GI50 [2]: > 1000 µM; TGI [2]: > 1000 µM; GI50 [3]: > 1000 µM; TGI [3]: > 1000 µM; GI50 [4]: 483 µM; TGI [4]: > 1000 µM; GI50 [5]: 155 µM; TGI [5]: > 1000 µM; GI50 [6]: > 1000 µM; TGI [6]: > 1000 µM; GI50 [7]: 913 µM; TGI [7]: > 1000 µM; GI50 [8]: > 1000 µM; TGI [8]: > 1000 µM; GI50 [9]: > 1000 µM; TGI [9]: > 1000 µM; GI50 [10]: > 1000 µM; TGI [10]: > 1000 µM; GI50 [11]: > 1000 µM; TGI [11]: > 1000 µM; GI50 [12]: > 1000 µM; TGI [12]: > 1000 µM; GI50 [13]: > 1000 µM; TGI [13]: > 1000 µM; GI50 [14]: > 1000 µM; TGI [14]: > 1000 µM; GI50 [15]: > 1000 µM; TGI [15]: > 1000 µM; GI50 [16]: > 1000 µM; TGI [16]: > 1000 µM; GI50 [17]: > 1000 µM; TGI [17]: > 1000 µM; GI50 [18]: > 1000 µM; TGI [18]: > 1000 µM; GI50 [19]: > 1000 µM; TGI [19]: > 1000 µM; GI50 [20]: > 1000 µM; TGI [20]: > 1000 µM; GI50 [21]: > 1000 µM; TGI [21]: > 1000 µM; GI50 [22]: > 1000 µM; TGI [22]: > 1000 µM; GI50 [23]: > 1000 µM; TGI [23]: > 1000 µM; GI50 [24]: > 1000 µM; TGI [24]: > 1000 µM; GI50 [25]: > 1000 µM; TGI [25]: > 1000 µM; GI50 [26]: > 1000 µM; TGI [26]: > 1000 µM; GI50 [27]: > 1000 µM; TGI [27]: > 1000 µM; GI50 [28]: > 1000 µM; TGI [28]: > 1000 µM; GI50 [29]: > 1000 µM; TGI [29]: > 1000 µM; GI50 [30]: > 1000 µM; TGI [30]: > 1000 µM; GI50 [31]: > 1000 µM; TGI [31]: > 1000 µM; GI50 [32]: > 1000 µM; TGI [32]: > 1000 µM; GI50 [33]: > 1000 µM; TGI [33]: > 1000 µM; GI50 [34]: > 1000 µM; TGI [34]: > 1000 µM; GI50 [35]: > 1000 µM; TGI [35]: > 1000 µM; GI50 [36]: > 1000 µM; TGI [36]: > 1000 µM; GI50 [37]: > 1000 µM; TGI [37]: > 1000 µM; GI50 [38]: > 1000 µM; TGI [38]: > 1000 µM; GI50 [39]: > 1000 µM; TGI [39]: > 1000 µM; GI50 [40]: > 1000 µM; TGI [40]: > 1000 µM; GI50 [41]: > 1000 µM; TGI [41]: > 1000 µM; GI50 [42]: > 1000 µM; TGI [42]: > 1000 µM; GI50 [43]: > 1000 µM; TGI [43]: > 1000 µM; GI50 [44]: > 1000 µM; TGI [44]: > 1000 µM; GI50 [45]: > 1000 µM; TGI [45]: > 1000 µM; GI50 [46]: > 1000 µM; TGI [46]: > 1000 µM; GI50 [47]: > 1000 µM; TGI [47]: > 1000 µM; GI50 [48]: > 1000 µM; TGI [48]: > 1000 µM; GI50 [49]: > 1000 µM; TGI [49]: > 1000 µM; GI50 [50]: > 1000 µM; TGI [50]: > 1000 µM; GI50 [51]: > 1000 µM; TGI [51]: > 1000 µM; GI50 [52]: > 1000 µM; TGI [52]: > 1000 µM; GI50 [53]: > 1000 µM; TGI [53]: > 1000 µM; GI50 [54]: > 1000 µM; TGI [54]: > 1000 µM; GI50 [55]: > 1000 µM; TGI [55]: > 1000 µM
